Assay results: patent US10328075B2, “Method of treatment and compounds for use therein” (Baker Heart and Diabetes Institute, priority 2015, dated 2019)
No end group written: not given here.

System: myocardial I-R injury in C57BL/6 mice
Test: Myocardial I-R in mice: systemic inflammation after 48 h reperfusion
Format: in vivo, mouse
Description: Male C57BL/6 mice were breed and housed in the AMREP Animal Centre and maintained under a 12 h light/dark cycle. After anaesthesia (i.p., ketamine 80 mg/kg, xylazine 20 mg/kg and atropine 1.2 mg/kg), mice were randomly assigned to 24 h, 48 h and 7 days reperfusion groups and underwent reversible left arterial descending (LAD) ligation as described (Gao XM, 2011; JMCC, 50; Gao XM, 2000, JMCC). Following sedation, mice were intubated and ventilated (Harvard apparatus, MA, USA) with room air mixed with oxygen (tidal volume 0.25 mL, 150 breath/min), and placed on a heating pad. A left thoractomy will be made via the ˜third intercostal space, where the beating heart was located.
The LAD was reversibly ligated using 7-0 silk suture with a slipknot enclosing two releasing rings. Regional ischaemia was confirmed by pale colour of the ligated area. Air was then evacuated from the chest, the cavity was closed and normal respiration was restored. After 40-60 min of ischaemia, blood flow through the left coronary artery was re-established by releasing the slipknot. Sham-operated mice underwent identical surgical procedures except the coronary arteries were not ligated. Three cohorts of mice were scheduled. Cohort 1 was subjected to 40 min ischaemic-24 h reperfusion for the assessment of cardiac necrosis. Cohort 2 was subjected to 60 min occlusion with 48 h reperfusion for the quantification of cardiac and systemic inflammation. The last cohort was subjected to 7 d reperfusion and early cardiac fibrosis was assessed.
Treatment with study drugs: Animals were randomly assigned to different groups and all treatments were administrated 5 min prior to reperfusion of the LAD. The peptide Ac2-26 (1 mg kg^−1) (Chemieliva, Chongqing, China) and its vehicle (10% dimethyl sulfoxide (DMSO) in saline) were intravenously (i.v.) injected via the tail vein. […] Mice then received drug or vehicle injections daily until the experimental endpoint. The two different vehicles groups reflect different study drug solubility and administration routes.
Assessment of systemic inflammation: Blood samples collected from mice subjected to 60 min ischaemia and 48 h reperfusion were diluted 1:20 into 2% acetic acid to lyse the red blood cells for total WBC counting, using a haemocytometer. Blood smears were stained using a hemacolor staining kit (Merck millipore, Melbourne, Australia) and then examined under 60× magnification using an Olympus Biological CHS microscope (Olympus Inc., Tokyo, Japan) for manual counting of neutrophils, lymphocytes and monocytes per 100 WBCs.
Animal Surgery: Adult C57BL/6 mice were randomly assigned to myocardial ischemia-reperfusion (I-R) injury or sham in vivo. Anesthetized mice (ketamine 80 mg/kg, xylazine 20 mg/kg and atropine 1.2 mg/kg, KXA, i.p.) underwent reversible left arterial descending (LAD) ligation as described (Gao et al. 2000 & Gao et al. 2011). Following sedation, mice were intubated and ventilated (Harvard apparatus, MA, USA) with room air mixed with oxygen (tidal volume 0.25 mL, 150 breaths/min), and placed on a heating pad. A left thoractomy was be made around the third intercostal space, where the beating heart was located. The LAD was reversibly ligated using 7-0 silk suture with a slipknot enclosing two releasing rings. Regional ischemia was confirmed by pale color of the ligated area. Air was then evacuated from the chest, the cavity closed and normal respiration restored. Blood flow through the left coronary artery was subsequently re-established at the end of the ischemic period (i.e. reperfusion) by releasing the slipknot. Three distinct cohorts of mice were studied. Cohorts 1 and 2 were subjected to 40 mins ischemia with either 24 h or 7 days reperfusion, optimal timepoints for the assessment of cardiac necrosis and early cardiac remodeling in vivo, respectively. Cohort 3 was subjected to 60 mins LAD occlusion with 48 h reperfusion, for the quantification of cardiac and systemic inflammation. […]

[1] = 48 h reperfusion, listed as Cmpd17b

| Compound | Effect on circulating IL-1β (48 h reperfusion) | Effect on circulating lymphocytes (48 h reperfusion) | Effect on circulating monocytes (48 h reperfusion) | Effect on circulating neutrophils (48 h reperfusion) | Effect on total circulating WBC (48 h reperfusion) | Effect on circulating lymphocytes [1] | Effect on total circulating WBC [1] | Effect on systemic inflammation / early inflammatory response 48 h post I-R (50 mg/kg i.p.) |
| --- | --- | --- | --- | --- | --- | --- | --- | --- |
| COc1cccc(Cc2cc(C)nn(C(C)C(=O)Nc3ccc(Br)cc3)c2=O)c1 (centres unmarked) [BIDI-001, N-(4-bromophenyl)-2-[5-(3-methoxybenzyl)-3-methyl-6-oxo-6H-pyridazin-1-yl]-propionamide] | significantly blunted | tended to reduce | without affecting | absent | tended to reduce | significantly blunted | absent | – |
| CC(C)C1C(NC(=O)Nc2ccc(Cl)cc2)C(=O)N(c2ccccc2)N1C (centres unmarked) [BIDI-002] | – | significantly increased | significantly increased | – | – | – | – | not |
| Ac2-26: Annexin-A1 N-terminal peptide, peptide ANX-A1 mimetic (Ac-AMVSEFLKQAWFIENEEQEYVQTVK; UniProt P04083 2-26, looked up, fragment) | – | – | – | – | did not significantly alter | – | – | – |
